This passage reports T/C results from PubChem BioAssay AID328 (DTP/NCI, 2004).

Several values for one entry are separate records, joined by “and”; a condition that tells them apart may be missing. Equal values may be shown once. Inconclusive results and toxic doses are left out.

The subject of the assay is BDF1 mice, P388 leukemia ip, median survival T/C. Kind of assay: NCI In Vivo Anticancer Drug Screen. Data for tumor model P388 Leukemia (intraperitoneal) in B6D2F1 (BDF1) mice. Particulars: endpoint: median survival time, higher = longer survival. An outline of the steps:
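Read-out is survival of treated animals expressed relative to the vehicle group, as a T/C ratio.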

Setting [1] is: dose: 25.0 mg/kg/injection, schedule: Q01DX009 (ip), vehicle: Klucel (hydroxypropylcellulose) (HPC).
Setting [2] is: dose: 50.0 mg/kg/injection, schedule: Q01DX009 (ip), vehicle: Klucel (hydroxypropylcellulose) (HPC).
[3] abbreviates: dose: 50.0 mg/kg/injection, schedule: Q04DX003 (ip), vehicle: saline.
[4] abbreviates: dose: 50.0 mg/kg/injection, schedule: Q01DX009 (ip), vehicle: saline.
Where [5] appears, read: dose: 100.0 mg/kg/injection, schedule: Q01DX009 (ip), vehicle: saline.
Where [6] appears, read: dose: 12.5 mg/kg/injection, schedule: Q01DX009 (ip), vehicle: saline with Tween-80.
The mark [7] stands for this setting: dose: 25.0 mg/kg/injection, schedule: Q01DX009 (ip), vehicle: saline with Tween-80.
Setting [8] is: dose: 50.0 mg/kg/injection, schedule: Q01DX009 (ip), vehicle: saline with Tween-80.
[9] abbreviates: dose: 200.0 mg/kg/injection, schedule: Q01DX009 (ip), vehicle: saline with Tween-80.
Setting [10] is: dose: 100.0 mg/kg/injection, schedule: Q01DX009 (ip), vehicle: saline with Tween-80.
Setting [11] is: dose: 12.5 mg/kg/injection, schedule: Q01DX009 (ip), vehicle: Klucel (hydroxypropylcellulose) (HPC).
[12] abbreviates: dose: 200.0 mg/kg/injection, schedule: Q04DX003 (ip), vehicle: Klucel (hydroxypropylcellulose) (HPC).
The mark [13] stands for this setting: dose: 100.0 mg/kg/injection, schedule: Q04DX003 (ip), vehicle: Klucel (hydroxypropylcellulose) (HPC).
Where [14] appears, read: dose: 400.0 mg/kg/injection, schedule: Q04DX003 (ip), vehicle: Klucel (hydroxypropylcellulose) (HPC).

As for `N#Cc1ccccc1NN=Nc1ccccc1-c1nc(N)nc(N)n1`, the T/C is 115 % of control (dose: 12.0 mg/kg/injection, schedule: Q04DX003 (ip), vehicle: saline with Tween-80); 108 % of control (dose: 12.0 mg/kg/injection, schedule: Q04DX003 (ip), vehicle: saline); 100 % of control under setting [1]; 104 % of control (dose: 25.0 mg/kg/injection, schedule: Q04DX003 (ip), vehicle: Klucel (hydroxypropylcellulose) (HPC)); 105 % of control (dose: 25.0 mg/kg/injection, schedule: Q04DX003 (ip), vehicle: saline with Tween-80); 112 % of control (dose: 25.0 mg/kg/injection, schedule: Q04DX003 (ip), vehicle: saline). Besides, the T/C (dose: 35.0 mg/kg/injection, schedule: Q01DX009 (ip), vehicle: Klucel (hydroxypropylcellulose) (HPC)) was 100 % of control; the T/C (dose: 35.0 mg/kg/injection, schedule: Q04DX003 (ip), vehicle: Klucel (hydroxypropylcellulose) (HPC)) was 95 % of control; the T/C under setting [2] was 90 % of control; the T/C (dose: 50.0 mg/kg/injection, schedule: Q04DX003 (ip), vehicle: Klucel (hydroxypropylcellulose) (HPC)) is 104 % of control; the T/C (dose: 50.0 mg/kg/injection, schedule: Q04DX003 (ip), vehicle: saline with Tween-80) is 115 % of control; the T/C under setting [3] is 116 % of control. Besides, the T/C is 90 % of control and 95 % of control (dose: 75.0 mg/kg/injection, schedule: Q01DX009 (ip), vehicle: Klucel (hydroxypropylcellulose) (HPC)); 95 % of control (dose: 75.0 mg/kg/injection, schedule: Q04DX003 (ip), vehicle: Klucel (hydroxypropylcellulose) (HPC)); 122 % of control (dose: 100.0 mg/kg/injection, schedule: Q01DX009 (ip), vehicle: Klucel (hydroxypropylcellulose) (HPC)).
Consider `CN1C(=O)N(C)C2(C=Cc3cc([N+](=O)[O-])ccc3O2)N(C)C1=O`, for which the T/C by setting is: under setting [4], 99 % of control; under setting [5], 101 % of control; (dose: 200.0 mg/kg/injection, schedule: Q01DX009 (ip), vehicle: saline) 99 % of control.
On to `Cc1ccc(NCc2nc(N)nc(Nc3ccc(C)cc3)n2)cc1`, for which the T/C runs as follows: (dose: 50.0 mg/kg/injection, schedule: Q01DX001 (ip), vehicle: saline sonified) 100 % of control; (dose: 100.0 mg/kg/injection, schedule: Q01DX001 (ip), vehicle: saline sonified) 100 % of control; (dose: 200.0 mg/kg/injection, schedule: Q01DX001 (ip), vehicle: saline sonified) 90 % of control.
On to `Oc1ccc(Nc2ccccc2)cc1`, for which the T/C (dose: 100.0 mg/kg/injection, schedule: Q01DX001 (ip), vehicle: saline) is 95 % of control; the T/C (dose: 200.0 mg/kg/injection, schedule: Q01DX001 (ip), vehicle: saline) is 100 % of control; the T/C (dose: 400.0 mg/kg/injection, schedule: Q01DX001 (ip), vehicle: saline) was 100 % of control.
In the case of `O=C(O)c1nc2nc(Cl)c(Cl)nc2[nH]1`, the T/C under setting [3] was 111 % of control; the T/C (dose: 100.0 mg/kg/injection, schedule: Q04DX003 (ip), vehicle: saline) was 97 % of control; the T/C (dose: 200.0 mg/kg/injection, schedule: Q04DX003 (ip), vehicle: saline) is 116 % of control.
With `CN=C1N[N+]2=C(C)CCCC2(C)S1` (configuration not stated), the T/C reads like this: (dose: 25.0 mg/kg/injection, schedule: Q01DX009 (ip), vehicle: saline) 100 % of control; under setting [4], 103 % of control; under setting [5], 99 % of control.
For `CCCCCC(C[N+](C)(C)C)C(=O)/C=C/c1ccc(Cl)cc1` (configuration not stated), the T/C runs as follows: (dose: 6.25 mg/kg/injection, schedule: Q01DX001 (ip), vehicle: Klucel (hydroxypropylcellulose) (HPC)) 113 % of control; (dose: 12.5 mg/kg/injection, schedule: Q01DX001 (ip), vehicle: Klucel (hydroxypropylcellulose) (HPC)) 100 % of control; (dose: 25.0 mg/kg/injection, schedule: Q01DX001 (ip), vehicle: Klucel (hydroxypropylcellulose) (HPC)) 101 % of control; (dose: 50.0 mg/kg/injection, schedule: Q01DX001 (ip), vehicle: Klucel (hydroxypropylcellulose) (HPC)) 88 % of control.
For `CCCCCCCCOC(=O)c1ccc(OP(=O)(N(C)C)N(C)C)cc1`, the T/C was 99 % of control under setting [6]; 101 % of control under setting [7]; 106 % of control and 124 % of control under setting [8]; 94 % of control under setting [9].
With `CC(C)c1oc(=O)cc2c1[C@@H](O)[C@H]1OC(=O)[C@@]3(C)[C@@H](O)[C@H]4O[C@H]4[C@@]2(C)[C@@H]13`, the T/C by setting is: (dose: 15.0 mg/kg/injection, schedule: Q04DX003 (ip), vehicle: saline with Tween-80) 115 % of control; (dose: 30.0 mg/kg/injection, schedule: Q01DX001 (ip), vehicle: saline with Tween-80) 104 % of control; (dose: 30.0 mg/kg/injection, schedule: Q04DX003 (ip), vehicle: saline with Tween-80) 97 % of control.
For the compound `C[N+](C)(Cn1ncc2ccc([N+](=O)[O-])cc21)Cn1ncc2ccc([N+](=O)[O-])cc21`, the T/C (dose: 100.0 mg/kg/injection, schedule: Q04DX003 (ip), vehicle: saline with Tween-80) was 106 % of control.
Take `NC(=O)OCC#CCCl`: the T/C runs as follows: under setting [8], 100 % of control; under setting [10], 98 % of control; under setting [9], 96 % of control.
Regarding `Cc1n(CC(C)C)c2c([n+]1CC(=O)c1ccc([N+](=O)[O-])cc1)C(=O)c1ccccc1C2=O`, the T/C reads like this: (dose: 1.25 mg/kg/injection, schedule: Q01DX010 (ip), vehicle: saline) 118 % of control; (dose: 2.5 mg/kg/injection, schedule: Q01DX010 (ip), vehicle: saline) 122 % of control; (dose: 5.0 mg/kg/injection, schedule: Q01DX010 (ip), vehicle: saline) 104 % of control.
As for `CCOc1cccc(/C=N/n2c(-c3ccccc3Cl)nc3ccccc3c2=O)c1O`, the T/C reads like this: under setting [8], 90 % of control; under setting [10], 87 % of control.
On to `CC(=O)NNc1ccccc1`, for which the T/C is 109 % of control under setting [11], 109 % of control under setting [1], 100 % of control under setting [2] and 117 % of control under setting [12].
For the compound `COC(=O)C12OCC34C(CC5=C(C)C(=O)C(O)=CC5(C)C3C(O)C1O)OC(=O)C(OC(=O)c1ccccc1)C24` (configuration not stated), the T/C was 111 % of control (dose: 0.04 mg/kg/injection, schedule: Q01DX009 (ip), vehicle: saline + alcohol) and 100 % of control (dose: 4.0 mg/kg/injection, schedule: Q01DX009 (ip), vehicle: saline + alcohol).
In the case of `Clc1c(Cl)c2c(Cl)c(Cl)c1C[P+](c1ccccc1)(c1ccccc1)CC[P+](c1ccccc1)(c1ccccc1)Cc1c(Cl)c(Cl)c(c(Cl)c1Cl)C[P+](c1ccccc1)(c1ccccc1)CC[P+](c1ccccc1)(c1ccccc1)C2`, the T/C (dose: 1.56 mg/kg/injection, schedule: Q01DX009 (ip), vehicle: water) is 92 % of control; the T/C (dose: 3.13 mg/kg/injection, schedule: Q01DX009 (ip), vehicle: water) was 113 % of control; the T/C (dose: 6.25 mg/kg/injection, schedule: Q01DX009 (ip), vehicle: water) was 106 % of control.
As to `Cc1nnc2n1N=C(c1ccc(O)c(O)c1O)CS2`, the T/C by setting is: under setting [8], 94 % of control; under setting [10], 93 % of control; under setting [9], 107 % of control.
Take `O=Cc1c2ccc(Cl)cc2nc2cc(Cl)ccc12`: the T/C (dose: 200.0 mg/kg/injection, schedule: Q01DX001 (ip), vehicle: saline with Tween-80) was 91 % of control.
For `COc1ccc(OC)c([N+](=O)[O-])c1`, the T/C reads like this: under setting [13], 100 % of control; (dose: 200.0 mg/kg/injection, schedule: Q01DX009 (ip), vehicle: Klucel (hydroxypropylcellulose) (HPC)) 95 % of control; under setting [12], 95 % of control; (dose: 400.0 mg/kg/injection, schedule: Q01DX009 (ip), vehicle: Klucel (hydroxypropylcellulose) (HPC)) 90 % of control; under setting [14], 100 % of control.
Take `CCCCC(=O)NN(Cn1c(=S)sc2ccccc21)Cn1c(=S)sc2ccccc21`: the T/C reads like this: under setting [11], 109 % of control; under setting [1], 109 % of control; under setting [2], 272 % of control.
Regarding `[O-]/[N+](=C\C=C\c1ccccc1)c1ccccc1`, the T/C by setting is: under setting [13], 100 % of control; under setting [12], 86 % of control; under setting [14], 90 % of control.
On to `C=C(Cl)COC1CCS(=O)(=O)C1` (configuration not stated), for which the T/C runs as follows: (dose: 6.25 mg/kg/injection, schedule: Q01DX009 (ip), vehicle: saline with Tween-80) 90 % of control; under setting [6], 90 % of control; under setting [7], 93 % of control.
